Values quoted from earlier work as cited in patent US20250325256A1, “LIPID PATCH” (SENSACH AB, priority 2021, published 2025).

Settings: cited from earlier work

**Q.** Which solubility in water does the source give for `CCCCCCCC/C=C\CCCCCCCC(=O)OCC(O)CO` (stereo not shown) [GMO, Glycerol monooleate] here?
**A.** Its solubility in water is “around 10^−6 M”.
